The values below come from patent US10266549B2, “ULK1 inhibitors and methods using same” (SALK INSTITUTE FOR BIOLOGICAL STUDIES, priority 2014, dated 2019).

The test deals with ULK1 (Homo sapiens (Human), UniProt O75385). The test is described as follows: ULK1 inhibition assay (Table 1). It counts as biochemical. Conditions: * = tested as a mixture of regioisomers.

Structures are written as SMILES.

Chain of ULK1 (O75385 whole entry, species assumed): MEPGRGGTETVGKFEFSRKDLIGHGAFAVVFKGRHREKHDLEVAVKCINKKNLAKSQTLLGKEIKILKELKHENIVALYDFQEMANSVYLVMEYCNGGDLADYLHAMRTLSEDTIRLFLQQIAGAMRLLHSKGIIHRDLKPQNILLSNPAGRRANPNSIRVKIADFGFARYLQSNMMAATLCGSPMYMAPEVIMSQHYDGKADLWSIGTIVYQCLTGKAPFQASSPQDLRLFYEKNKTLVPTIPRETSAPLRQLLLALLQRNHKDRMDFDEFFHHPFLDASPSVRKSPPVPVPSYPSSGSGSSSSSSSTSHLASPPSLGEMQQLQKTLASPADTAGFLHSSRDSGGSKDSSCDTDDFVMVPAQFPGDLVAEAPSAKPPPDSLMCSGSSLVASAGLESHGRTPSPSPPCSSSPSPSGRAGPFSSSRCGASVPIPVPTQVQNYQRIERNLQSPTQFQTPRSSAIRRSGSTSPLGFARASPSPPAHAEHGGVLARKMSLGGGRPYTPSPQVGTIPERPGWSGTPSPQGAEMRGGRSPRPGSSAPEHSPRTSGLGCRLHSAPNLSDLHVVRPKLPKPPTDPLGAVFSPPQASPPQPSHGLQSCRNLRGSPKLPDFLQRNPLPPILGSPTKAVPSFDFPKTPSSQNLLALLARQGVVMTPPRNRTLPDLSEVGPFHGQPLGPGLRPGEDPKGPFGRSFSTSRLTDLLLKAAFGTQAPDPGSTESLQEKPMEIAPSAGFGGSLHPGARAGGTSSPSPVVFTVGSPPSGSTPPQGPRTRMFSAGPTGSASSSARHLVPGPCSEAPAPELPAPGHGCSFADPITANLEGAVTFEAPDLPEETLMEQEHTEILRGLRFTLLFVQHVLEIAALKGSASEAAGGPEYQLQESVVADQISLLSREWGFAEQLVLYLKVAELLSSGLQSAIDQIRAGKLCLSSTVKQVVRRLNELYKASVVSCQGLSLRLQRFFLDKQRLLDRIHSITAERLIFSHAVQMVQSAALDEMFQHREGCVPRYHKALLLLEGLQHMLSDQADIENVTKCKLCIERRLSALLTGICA

Turning to `O=C1CCc2cc(Nc3ncc(C(F)(F)F)c(-c4ccccc4)n3)ccc2N1` [compound 72, 6-(4-Phenyl-5-(trifluoromethyl)pyrimidin-2-ylamino)-3,4-dihydroquinolin-2(1H)-one], the IC50 is over 2 µM.

Turning to `COc1nc(Nc2cccc(C(F)(F)F)c2F)ncc1Br` [compound 172, 5-bromo-N-(2-fluoro-3-(trifluoromethyl)phenyl)-4-methoxy pyrimidin-2-amine], the IC50 lay within 0.2 to 2 µM.

Turning to `CNC(=O)c1ccccc1Nc1nc(Nc2ccc3c(c2)CCC(=O)N3)ncc1Cl` [compound 19, 2-(5-Chloro-2-(2-oxo-1,2,3,4-tetrahydroquinolin-6-ylamino)pyrimidin-4-ylamino)-N-methylbenzamide], the IC50 was under 0.2 µM.

Take `Nc1ncc(C(F)(F)F)c(Nc2cnc3[nH]ccc3c2)n1` [181b, N4-(1H-pyrrolo[2,3-b]pyridin-5-yl)-5-(trifluoromethyl)pyrimidine-2,4-diamine]: the IC50 fell in the range of 0.2 to 2 µM.

Turning to `O=C1CCc2cc(Nc3ncc(C(F)(F)F)c(Nc4cccc(OCc5ccccc5)c4)n3)ccc2N1` [compound 121, 6-((4-((3-(benzyloxy)phenyl)amino)-5-(trifluoromethyl)pyrimidin-2-yl)amino)-3,4-dihydroquinolin-2(1H)-one], the IC50 is 0.2 to 2 µM.

On to `COc1cnc(Nc2ccc3c(c2)CCC(=O)N3)nc1Nc1ccc2c(c1)CCC(=O)N2` [compound 135, 6,6′-((5-methoxypyrimidine-2,4-diyl)bis(azanediyl))bis(3,4-dihydroquinolin-2(1H)-one)], for which the IC50 was over 2 µM.

`O=C1CCc2cc(Nc3nc(NC4CC4)ncc3C(F)(F)F)ccc2N1` [131b, 6-((2-(cyclopropylamino)-5-(trifluoromethyl)pyrimidin-4-yl)amino)-3,4-dihydroquinolin-2(1H)-one]: the IC50 is under 0.2 µM.

With `O=C1CCc2cc(Nc3ncc(C(F)(F)F)c(Nc4ccc5c(c4)CCC(=O)N5)n3)ccc2N1` [120c, 6,6′-((5-(trifluoromethyl)pyrimidine-2,4-diyl)bis(azanediyl))bis(3,4-dihydroquinolin-2(1H)-one)], the IC50 is under 0.2 µM.

As for `CNC(=O)c1ccccc1Nc1nc(Nc2cc(OC)c(OC)c(OC)c2)ncc1Cl` [compound 15, 2-(5-Chloro-2-(3,4,5-trimethoxyphenylamino)pyrimidin-4-ylamino)-N-methylbenzamide], the IC50 was under 0.2 µM.

As to `COc1cc(Nc2ncc(Br)c(N(C)C(=O)c3ccccc3O)n2)cc(OC)c1OC` [171b, N-(5-bromo-2-((3,4,5-trimethoxyphenyl)amino)pyrimidin-4-yl)-2-hydroxy-N-methylbenzamide], the IC50 was under 0.2 µM.

Take `CNC(=O)c1ccccc1Nc1nc(Nc2cc(OC)c(OC)c(OC)c2)ncc1CCc1ccccc1` [compound 87, N-Methyl-2-((5-phenethyl-2-((3,4,5-trimethoxyphenyl)amino)pyrimidin-4-yl)amino)benzamide]: the IC50 lay in the range of 0.2 to 2 µM.

On to `FC(F)(F)c1cnc(NC2CC2)nc1Nc1cnc2[nH]ccc2c1` [152b, N^2-cyclopropyl-N^4-(1H-pyrrolo[2,3-b]pyridin-5-yl)-5-(trifluoromethyl)pyrimidine-2,4-diamine], for which the IC50 lay within 0.2 to 2 µM.

As to `CNC(=O)c1ccccc1Nc1nc(Nc2cccc(OC)c2)ncc1Cl` [compound 44, 2-(5-Chloro-2-(3-methoxyphenylamino)pyrimidin-4-ylamino)-N-methylbenzamide], the IC50 is under 0.2 µM.

On to `Brc1cnc(Nc2ccc3[nH]ccc3c2)nc1Nc1ccccn1` [compound 154, 5-bromo-N^2-(1H-indol-5-yl)-N^4-(pyridin-2-yl)pyrimidine-2,4-diamine], for which the IC50 is under 0.2 µM.

Take `CNc1ncc(C(F)(F)F)c(Nc2cnc3[nH]ccc3c2)n1` [182b, N2-methyl-N4-(1H-pyrrolo[2,3-b]pyridin-5-yl)-5-(trifluoromethyl)pyrimidine-2,4-diamine]: the IC50 fell in the range of 0.2 to 2 µM.

Regarding `CNC(=O)c1ccccc1Nc1nc(Nc2cc(N3CCOCC3)cc(N3CCOCC3)c2)ncc1Cl` [compound 78, 2-(5-Chloro-2-(3,5-dimorpholinophenylamino)pyrimidin-4-ylamino)-N-methylbenzamide], the IC50 lay in the range of 0.2 to 2 µM.

Consider `O=C1CCc2cc(Nc3ncc(C(F)(F)F)c(SCc4ccccc4)n3)ccc2N1` [compound 62, 6-(4-(Benzylthio)-5-(trifluoromethyl)pyrimidin-2-ylamino)-3,4-dihydroquinolin-2(1H)-one], for which the IC50 is under 0.2 µM.

For `COc1cc(Nc2ncc(C(F)(F)F)c(NCc3cccc(S(C)(=O)=O)c3)n2)cc(OC)c1OC` [compound 31, N^4-(3-(Methylsulfonyl)benzyl)-5-(trifluoromethyl)-N^2-(3,4,5-trimethoxyphenyl)pyrimidine-2,4-diamine], the IC50 is under 0.2 µM.

With `Brc1cnc(Nc2cnc3[nH]ccc3c2)nc1NC1CC1` [compound 174, 5-bromo-N4-cyclopropyl-N2-(1H-pyrrolo[2,3-b]pyridin-5-yl)pyrimidine-2,4-diamine], the IC50 is under 0.2 µM.

With `Clc1cnc(Nc2ccccc2)nc1Nc1ccccc1` [compound 114, 5-chloro-N^2,N^4-diphenylpyrimidine-2,4-diamine], the IC50 is over 2 µM.

In the case of `O=C1CCc2cc(Nc3ncc(C(F)(F)F)c(OC4Cc5ccccc5C4)n3)ccc2N1` [180a, 6-((4-((2,3-dihydro-1H-inden-2-yl)oxy)-5-(trifluoromethyl)pyrimidin-2-yl)amino)-3,4-dihydroquinolin-2(1H)-one], the IC50 is under 0.2 µM.

With `COc1ccc(OC)c(Nc2ncc(C(F)(F)F)c(O)n2)c1` [109b, 2-((2,5-dimethoxyphenyl)amino)-5-(trifluoromethyl)pyrimidin-4-ol], the IC50 is over 2 µM.

Take `CNC(=O)c1ccccc1Nc1nc(Nc2cc3c(cc2C)OCO3)ncc1Cl` [compound 57, 2-(5-Chloro-2-(6-methylbenzo[d][1,3]dioxol-5-ylamino)pyrimidin-4-ylamino)-N-methylbenzamide]: the IC50 is under 0.2 µM.

`Fc1c(Nc2ncc(C(F)(F)F)c(Nc3ccc4c(c3)OCO4)n2)cccc1C(F)(F)F` [141a, N^4-(benzo[d][1,3]dioxol-5-yl)-N^2-(2-fluoro-3-(trifluoromethyl)phenyl)-5-(trifluoromethyl)pyrimidine-2,4-diamine]: the IC50 was over 2 µM.

As for `O=C1CCc2cc(Nc3ncc(C(F)(F)F)c(NC4CC4)n3)ccc2N1` [131a, 6-((4-(cyclopropylamino)-5-(trifluoromethyl)pyrimidin-2-yl)amino)-3,4-dihydroquinolin-2(1H)-one], the IC50 was under 0.2 µM.

On to `COc1ccc(C)c(Nc2ncc(Cl)c(Nc3nccc(C)n3)n2)c1` [compound 55, 5-Chloro-N^2-(5-methoxy-2-methylphenyl)-N^4-(4-methylpyrimidin-2-yl)pyrimidine-2,4-diamine], for which the IC50 is over 2 µM.

`CNC(=O)c1ccccc1Nc1nc(Nc2ccc(N3CCOCC3)cc2OC)ncc1Cl` [compound 12, 2-(5-Chloro-2-(2-methoxy-4-morpholinophenylamino)pyrimidin-4-ylamino)-N-methylbenzamide]: the IC50 is under 0.2 µM.

In the case of `FC(F)(F)c1cnc(NC2CC2)nc1Nc1ccc2c(c1)OCCO2` [158b, N^2-cyclopropyl-N^4-(2,3-dihydrobenzo[b][1,4]dioxin-6-yl)-5-(trifluoromethyl)pyrimidine-2,4-diamine], the IC50 is under 0.2 µM.

`FC(F)(F)c1cnc(Nc2cnc3[nH]ccc3c2)nc1NC1CC1` [152a, N^4-cyclopropyl-N^2-(1H-pyrrolo[2,3-b]pyridin-5-yl)-5-(trifluoromethyl)pyrimidine-2,4-diamine]: the IC50 is under 0.2 µM.

Take `COc1ccc(Nc2nc(Nc3cc(OC)c(OC)c(OC)c3)ncc2Br)cn1` [compound 25, 5-Bromohloro-N^4-(6-methoxypyridin-3-yl)-N^2-(3,4,5-trimethoxyphenyl)pyrimidine-2,4-diamine]: the IC50 is under 0.2 µM.

As for `COc1ccc(Nc2nc(Nc3ccc(N4CCOCC4)cc3OC)ncc2Br)cn1` [compound 28, 5-Bromo-N^2-(2-methoxy-4-morpholinophenyl)-N^4-(6-methoxypyridin-3-yl)pyrimidine-2,4-diamine], the IC50 is 0.2 to 2 µM.

As for `COc1ccc(Nc2nc(Nc3ccc4[nH]ccc4c3)ncc2Br)cn1` [compound 30, 5-Bromo-N^2-(1H-indol-5-yl)-N^4-(6-methoxypyridin-3-yl) pyrimidine-2,4-diamine], the IC50 was under 0.2 µM.

In the case of `CNC(=O)c1ccccc1Oc1nc(Nc2ccc(OC)cc2)ncc1C(F)(F)F` [105a, 2-((2-((4-methoxyphenyl)amino)-5-(trifluoromethyl)pyrimidin-4-yl)oxy)-N-methylbenzamide], the IC50 is over 2 µM.

With `CNC(=O)c1ccccc1Nc1nc(Nc2ccccc2Cl)ncc1Cl` [compound 74, 2-(5-Chloro-2-(2-chlorophenylamino)pyrimidin-4-ylamino)-N-methylbenzamide], the IC50 lay in the range of 0.2 to 2 µM.

In the case of `Nc1ncc(C(F)(F)F)c(Nc2ccc3c(c2)OCO3)n1` [165a, N^4-(benzo[d][1,3]dioxol-5-yl)-5-(trifluoromethyl)pyrimidine-2,4-diamine], the IC50 was in the range of 0.2 to 2 µM.

Consider `CNC(=O)c1ccccc1Oc1nc(Nc2cc(Br)ccc2C)ncc1C(F)(F)F` [compound 100, 2((2-((5-bromo-2-methylphenyl)amino)-5-(trifluoromethyl)pyrimidin-4-yl)oxy)-N-methylbenzamide], for which the IC50 is over 2 µM.

With `COc1ccc(C)c(Nc2ncc(Br)c(Nc3ccccn3)n2)c1` [compound 26, 5-Bromo-N^2-(5-methoxy-2-methylphenyl)-N^4-(pyridin-2-yl) pyrimidine-2,4-diamine], the IC50 was in the range of 0.2 to 2 µM.

Consider `Cc1ccc(Nc2nc(Nc3ccc4c(c3)CCC(=O)N4)ncc2C(F)(F)F)cc1C` [compound 125, 6-((4-((3,4-dimethylphenyl)amino)-5-(trifluoromethyl)pyrimidin-2-yl)amino)-3,4-dihydroquinolin-2(1H)-one], for which the IC50 is under 0.2 µM.

As for `CNC(=O)c1ccccc1Nc1nc(Nc2cc(OC)ccc2C)ncc1Br` [compound 17, 2-(5-Bromo-2-(5-methoxy-2-methylphenylamino)pyrimidin-4-ylamino)-N-methylbenzamide], the IC50 is under 0.2 µM.

In the case of `CS(=O)(=O)c1cccc(CNc2nc(Nc3ccc4[nH]ccc4c3)ncc2Br)c1` [compound 153, 5-bromo-N^2-(1H-indol-5-yl)-N^4-(3-(methylsulfonyl)benzyl) pyrimidine-2,4-diamine], the IC50 was over 2 µM.

For orientation: IC50 means the concentration needed to halve the response being measured.
